According to PubChem BioAssay AID1918954 (Molecular Pharmacology Branch, DTP, NCI, 2023):

System: MDA-MB-468 complex spheroids with HUVEC/MSC, viability
Test: Anticancer human tumor MDA-MB-468 cell line growth inhibition;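 further: spheroids exposed to agents for seven days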;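 on viability, T/C: 100% = DMSO vehicle control viability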
Settings: for IC50: curve of first compound; for viability, T/C: stronger effect = lower value
Method in brief: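 Complex spheroids of tumor cells with HUVEC and human MSCs, exposed to iadademstat combined with other agents. Each agent tested in half-log steps from near clinical Cmax (else 10 microM top), DMSO ≤0.25%.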

[1] = second compound 0.1 µM, first compound 0.0316 µM
[2] = second compound 0.1 µM, first compound 0.1 µM
[3] = second compound 0.1 µM, first compound 0.316 µM
[4] = second compound 0.1 µM, first compound 1 µM
[5] = second compound 0.1 µM, first compound 3.16 µM
[6] = second compound 0.1 µM, first compound 10 µM
[7] = second compound 0.316 µM, first compound 0.0316 µM
[8] = second compound 0.316 µM, first compound 0.1 µM
[9] = second compound 0.316 µM, first compound 0.316 µM
[10] = second compound 0.316 µM, first compound 1 µM
[11] = second compound 0.316 µM, first compound 3.16 µM
[12] = second compound 0.316 µM, first compound 10 µM
[13] = second compound 1 µM, first compound 0.0316 µM
[14] = second compound 1 µM, first compound 0.1 µM
[15] = second compound 1 µM, first compound 0.316 µM
[16] = second compound 1 µM, first compound 1 µM
[17] = second compound 1 µM, first compound 3.16 µM
[18] = second compound 1 µM, first compound 10 µM
[19] = second compound 3.16 µM, first compound 0.0316 µM
[20] = second compound 3.16 µM, first compound 0.1 µM
[21] = second compound 3.16 µM, first compound 0.316 µM
[22] = second compound 3.16 µM, first compound 1 µM
[23] = second compound 3.16 µM, first compound 3.16 µM
[24] = second compound 3.16 µM, first compound 10 µM
[25] = second compound 10 µM, first compound 0.0316 µM
[26] = second compound 10 µM, first compound 0.1 µM
[27] = second compound 10 µM, first compound 0.316 µM
[28] = second compound 10 µM, first compound 1 µM
[29] = second compound 10 µM, first compound 3.16 µM
[30] = second compound 10 µM, first compound 10 µM
[31] = second compound 0.1 µM, first compound 0.00949 µM
[32] = second compound 0.1 µM, first compound 0.03 µM
[33] = second compound 0.1 µM, first compound 0.0949 µM
[34] = second compound 0.1 µM, first compound 0.3 µM
[35] = second compound 0.316 µM, first compound 0.00949 µM
[36] = second compound 0.316 µM, first compound 0.03 µM
[37] = second compound 0.316 µM, first compound 0.0949 µM
[38] = second compound 0.316 µM, first compound 0.3 µM
[39] = second compound 1 µM, first compound 0.00949 µM
[40] = second compound 1 µM, first compound 0.03 µM
[41] = second compound 1 µM, first compound 0.0949 µM
[42] = second compound 1 µM, first compound 0.3 µM
[43] = second compound 3.16 µM, first compound 0.00949 µM
[44] = second compound 3.16 µM, first compound 0.03 µM
[45] = second compound 3.16 µM, first compound 0.0949 µM
[46] = second compound 3.16 µM, first compound 0.3 µM
[47] = second compound 10 µM, first compound 0.00949 µM
[48] = second compound 10 µM, first compound 0.03 µM
[49] = second compound 10 µM, first compound 0.0949 µM
[50] = second compound 10 µM, first compound 0.3 µM

SMILES: CC1(C)CCC(CN2CCN(c3ccc(C(=O)NS(=O)(=O)c4ccc(NCC5CCOCC5)c([N+](=O)[O-])c4)c(Oc4cnc5[nH]ccc5c4)c3)CC2)=C(c2ccc(Cl)cc2)C1 + NC1CCC(NC2CC2c2ccccc2)CC1
- IC50 (second compound 0.1 µM): 5550 nM
- IC50 (second compound 0.316 µM): 5700 nM
- IC50 (second compound 1 µM): 3810 nM
- IC50 (second compound 3.16 µM): 4460 nM
- IC50 (second compound 10 µM): 4240 nM
- viability, T/C [1]: 92.8%
- viability, T/C [2]: 87%
- viability, T/C [3]: 103%
- viability, T/C [4]: 98.6%
- viability, T/C [5]: 70%
- viability, T/C [6]: 29.1%
- viability, T/C [7]: 99.8%
- viability, T/C [8]: 119%
- viability, T/C [9]: 128%
- viability, T/C [10]: 87.6%
- viability, T/C [11]: 78%
- viability, T/C [12]: 26.4%
- viability, T/C [13]: 73.9%
- viability, T/C [14]: 113%
- viability, T/C [15]: 94.8%
- viability, T/C [16]: 79.1%
- viability, T/C [17]: 54%
- viability, T/C [18]: 34.8%
- viability, T/C [19]: 87.9%
- viability, T/C [20]: 95.5%
- viability, T/C [21]: 78.1%
- viability, T/C [22]: 76.6%
- viability, T/C [23]: 61.2%
- viability, T/C [24]: 27.2%
- viability, T/C [25]: 71.2%
- viability, T/C [26]: 68.7%
- viability, T/C [27]: 67.1%
- viability, T/C [28]: 65.3%
- viability, T/C [29]: 58.1%
- viability, T/C [30]: 27.8%

SMILES: CC1COCCN1c1cc(C2(S(C)(=N)=O)CC2)nc(-c2ccnc3[nH]ccc23)n1 (stereo not given) + NC1CCC(NC2CC2c2ccccc2)CC1
- IC50 (second compound 0.1 µM): 330 nM
- IC50 (second compound 0.316 µM): 450 nM
- IC50 (second compound 1 µM): 326 nM
- IC50 (second compound 3.16 µM): 394 nM
- IC50 (second compound 10 µM): 221 nM
- viability, T/C [1]: 103%
- viability, T/C [2]: 73.1%
- viability, T/C [3]: 49.5%
- viability, T/C [4]: 34.9%
- viability, T/C [5]: 21.3%
- viability, T/C [6]: 10.2%
- viability, T/C [7]: 76.9%
- viability, T/C [8]: 72.2%
- viability, T/C [9]: 55.8%
- viability, T/C [10]: 35.1%
- viability, T/C [11]: 21.2%
- viability, T/C [12]: 10.6%
- viability, T/C [13]: 74.1%
- viability, T/C [14]: 71%
- viability, T/C [15]: 45.4%
- viability, T/C [16]: 34.4%
- viability, T/C [17]: 25.8%
- viability, T/C [18]: 11.3%
- viability, T/C [19]: 75.5%
- viability, T/C [20]: 74.6%
- viability, T/C [21]: 48.9%
- viability, T/C [22]: 36.7%
- viability, T/C [23]: 21.2%
- viability, T/C [24]: 12.4%
- viability, T/C [25]: 63.9%
- viability, T/C [26]: 54.7%
- viability, T/C [27]: 48.2%
- viability, T/C [28]: 35.2%
- viability, T/C [29]: 21.1%
- viability, T/C [30]: 8.95%

SMILES: CCN(c1cc(-c2ccc(CN3CCOCC3)cc2)cc(C(=O)NCc2c(C)cc(C)[nH]c2=O)c1C)C1CCOCC1 + NC1CCC(NC2CC2c2ccccc2)CC1
- IC50 (second compound 0.1 µM): > 3000 nM
- IC50 (second compound 0.316 µM): > 3000 nM
- IC50 (second compound 1 µM): > 3000 nM
- IC50 (second compound 3.16 µM): > 3000 nM
- IC50 (second compound 10 µM): > 3000 nM
- viability, T/C [31]: 107%
- viability, T/C [32]: 96%
- viability, T/C [33]: 100%
- viability, T/C [34]: 88.1%
- viability, T/C (second compound 0.1 µM, first compound 0.949 µM): 85.5%
- viability, T/C (second compound 0.1 µM, first compound 3 µM): 83%
- viability, T/C [35]: 99.7%
- viability, T/C [36]: 102%
- viability, T/C [37]: 96.7%
- viability, T/C [38]: 102%
- viability, T/C (second compound 0.316 µM, first compound 0.949 µM): 88.6%
- viability, T/C (second compound 0.316 µM, first compound 3 µM): 91.9%
- viability, T/C [39]: 87%
- viability, T/C [40]: 92.3%
- viability, T/C [41]: 95.7%
- viability, T/C [42]: 87.4%
- viability, T/C (second compound 1 µM, first compound 0.949 µM): 86%
- viability, T/C (second compound 1 µM, first compound 3 µM): 74.9%
- viability, T/C [43]: 86.3%
- viability, T/C [44]: 76.8%
- viability, T/C [45]: 97.8%
- viability, T/C [46]: 99.9%
- viability, T/C (second compound 3.16 µM, first compound 0.949 µM): 77.4%
- viability, T/C (second compound 3.16 µM, first compound 3 µM): 88.5%
- viability, T/C [47]: 67.2%
- viability, T/C [48]: 72.2%
- viability, T/C [49]: 66.8%
- viability, T/C [50]: 74.5%
- viability, T/C (second compound 10 µM, first compound 0.949 µM): 75.8%
- viability, T/C (second compound 10 µM, first compound 3 µM): 63.4%

SMILES: Nc1ncn(C2CC(O)C(CO)S2)c(=O)n1 (stereo not given) + NC1CCC(NC2CC2c2ccccc2)CC1
- IC50 (second compound 0.1 µM): 88.3 nM
- IC50 (second compound 0.316 µM): 90.5 nM
- IC50 (second compound 1 µM): 80.4 nM
- IC50 (second compound 3.16 µM): 65.7 nM
- IC50 (second compound 10 µM): 11.6 nM
- viability, T/C (second compound 0.1 µM, first compound 0.000949 µM): 90.8%
- viability, T/C (second compound 0.1 µM, first compound 0.003 µM): 95.7%
- viability, T/C [31]: 76.8%
- viability, T/C [32]: 59.6%
- viability, T/C [33]: 54.5%
- viability, T/C [34]: 35%
- viability, T/C (second compound 0.316 µM, first compound 0.000949 µM): 89.7%
- viability, T/C (second compound 0.316 µM, first compound 0.003 µM): 80%
- viability, T/C [35]: 72.8%
- viability, T/C [36]: 71.3%
- viability, T/C [37]: 45.6%
- viability, T/C [38]: 29.8%
- viability, T/C (second compound 1 µM, first compound 0.000949 µM): 76.5%
- viability, T/C (second compound 1 µM, first compound 0.003 µM): 87.8%
- viability, T/C [39]: 76.1%
- viability, T/C [40]: 64.1%
- viability, T/C [41]: 48.5%
- viability, T/C [42]: 38.1%
- viability, T/C (second compound 3.16 µM, first compound 0.000949 µM): 81.2%
- viability, T/C (second compound 3.16 µM, first compound 0.003 µM): 68.3%
- viability, T/C [43]: 76%
- viability, T/C [44]: 67.5%
- viability, T/C [45]: 41.8%
- viability, T/C [46]: 33.7%
- viability, T/C (second compound 10 µM, first compound 0.000949 µM): 64.6%
- viability, T/C (second compound 10 µM, first compound 0.003 µM): 53%
- viability, T/C [47]: 54.5%
- viability, T/C [48]: 43%
- viability, T/C [49]: 40%
- viability, T/C [50]: 31.1%

SMILES: O=C(C=Cn1cnc(-c2cc(C(F)(F)F)cc(C(F)(F)F)c2)n1)NNc1cnccn1 + NC1CCC(NC2CC2c2ccccc2)CC1
- IC50 (second compound 0.1 µM): < 3.16 nM
- IC50 (second compound 0.316 µM): < 3.16 nM
- IC50 (second compound 1 µM): < 3.16 nM
- IC50 (second compound 3.16 µM): < 3.16 nM
- IC50 (second compound 10 µM): < 3.16 nM
- viability, T/C (second compound 0.1 µM, first compound 0.00316 µM): 45.1%
- viability, T/C (second compound 0.1 µM, first compound 0.01 µM): 29.7%
- viability, T/C [1]: 11.8%
- viability, T/C [2]: 3.32%
- viability, T/C [3]: 2.51%
- viability, T/C [4]: 1.85%
- viability, T/C (second compound 0.316 µM, first compound 0.00316 µM): 38.9%
- viability, T/C (second compound 0.316 µM, first compound 0.01 µM): 26.9%
- viability, T/C [7]: 9.03%
- viability, T/C [8]: 2.83%
- viability, T/C [9]: 7.44%
- viability, T/C [10]: 2.14%
- viability, T/C (second compound 1 µM, first compound 0.00316 µM): 37.4%
- viability, T/C (second compound 1 µM, first compound 0.01 µM): 32%
- viability, T/C [13]: 10.6%
- viability, T/C [14]: 3.06%
- viability, T/C [15]: 2.61%
- viability, T/C [16]: 6.02%
- viability, T/C (second compound 3.16 µM, first compound 0.00316 µM): 38.8%
- viability, T/C (second compound 3.16 µM, first compound 0.01 µM): 31%
- viability, T/C [19]: 12.4%
- viability, T/C [20]: 3.59%
- viability, T/C [21]: 6.05%
- viability, T/C [22]: 5.81%
- viability, T/C (second compound 10 µM, first compound 0.00316 µM): 35.4%
- viability, T/C (second compound 10 µM, first compound 0.01 µM): 30.1%
- viability, T/C [25]: 12.3%
- viability, T/C [26]: 4.27%
- viability, T/C [27]: 8.47%
- viability, T/C [28]: 2.53%
